Assays:
Assay type in all cases: cell-based
S. mutans [1] = experiment: Minimum Bactericidal Concentration (MBC) test of TCM extracts on oral bacteria; conditions: transfer from non-turbid tubes to fresh growth media, 48 hrs
Method: (§1) To evaluate the germ-kill efficacy, the dried crude TCM bark, stem, leaf or root was ground to powder. 10-50 grams of TCM powder was mixed with 100 ml of ethanol. The mixture was super-sonicated for 10-15 minutes to extract the TCM actives. The mixture was further transferred into a Mixxor solid-liquid phase extractor for extracting about 50 strokes. The solution was filtered by a 0.45 um Millipore filter. For determination of the TCM extract concentration, slight amount of TCM extract sample was accurately weighed on a pre-weighed aluminum weighing dish. It was dried in a 45° C. oven for 2 hours to evaporate ethanol. The sample dish was weighed again, and the concentration of TCM extract was determined as: conc.=(Dry weight−dish weight)/(wet weight−dish weight)×100%.
(§2) The germ-kill efficacy was determined by a Minimum Inhibitive Concentration test (MIC) and a Minimum Bactericidal Concentration (MBC) test. […] The solution was then serially diluted two-fold so that each subsequent dilution contained 50% of the compound concentration of the previous dilution while maintaining a constant level of nutrients for each dilution. These dilutions were inoculated with representative oral microorganisms, and incubated for 24 hrs at 37° C. For each TCM compound, the lowest dilution that was not turbid was registered as the MIC. The MBC was determined by transferring […] of liquid from no-turbid tubes to fresh growth media and incubated for 48 hrs. […] Table A & B list the MIC and MBC data on P. gingivalis, F. nucleatum and S. nutans.

P. gingivalis [2] = experiment: as above; conditions: transfer from non-turbid tubes to fresh growth media, 48 hrs
Method: as §1, §2

F. nucleatum [3] = experiment: as above; conditions: transfer from non-turbid tubes to fresh growth media, 48 hrs
Method: as §1, §2

S. mutans [4] = experiment: Minimum Inhibitive Concentration test (MIC) of TCM extracts on oral bacteria; conditions: ethanol TCM extract; Schaedler broth, two-fold dilutions, 24 hrs at 37° C.
Method: as §1, §2

P. gingivalis [5] = experiment: as above; conditions: ethanol TCM extract; Schaedler broth, two-fold dilutions, 24 hrs at 37° C.
Method: as §1, §2

F. nucleatum [6] = experiment: as above; conditions: ethanol TCM extract; Schaedler broth, two-fold dilutions, 24 hrs at 37° C.
Method: as §1, §2

With N=C(NCCCCCCNC(=N)NC(=N)Nc1ccc(Cl)cc1)NC(=N)Nc1ccc(Cl)cc1.O=C(O)[C@H](O)[C@@H](O)[C@H](O)[C@H](O)CO.O=C(O)[C@H](O)[C@@H](O)[C@H](O)[C@H](O)CO [Chlorohexdine Gluconate] the “MBC S. mutans” value (S. mutans [1]) was 10 ng/mL, the “MBC P. gingivalis” value (P. gingivalis [2]) was 5 ng/mL and the “MBC F. nucleatum” value (F. nucleatum [3]) was 10 ng/mL. For the same compound, the “MIC S. mutans” value (S. mutans [4]) was 5 ng/mL, the “MIC P. gingivalis” value (P. gingivalis [5]) was 2.5 ng/mL and the “MIC F. nucleatum” value (F. nucleatum [6]) was 5 ng/mL.

Source: patent US20100104518A1, “CHEWING GUM, CONFECTION, AND OTHER ORAL DELIVERY VEHICLES CONTAINING A TRADITIONAL CHINESE MEDICINE OR EXTRACT THEREOF” (priority 2006, published 2010)
